Assay results: patent US20210220331A1, “INHIBITORS OF IRES-MEDIATED PROTEIN SYNTHESIS” (The Regents of the University of California, priority 2016, published 2021)

Columns and labels:
[1] = tested on: normal mature human neurons; assay: In vitro cytotoxicity in human neurons (trypan blue exclusion); type: cell-based; design: dose or concentration left out as unconfirmed
Experimental: Within the series B and C analogs, IRES-J008, with a 4-methoxyphenyl substituent in place of the 2,4-dimethoxybenzyl unit, and to a lesser degree, IRES-J009, with an N1-methyluracil unit in place of the dichloromaleimide unit, inhibited cyclin D1 and c-MYC PP242-induced IRES activity. […] The in vitro cytotoxicities of these three analogs relative to C11 in human neurons were also determined. […] The reduced toxicity of the IRES-J007 versus C11 might possible be due to the lack of the quite reactive dichloromaleimide unit present in C11 which is absent in IRES-J007, or may be due to other factors.

[2] = tested on: subcutaneous LN229 tumors
Experimental: TUNEL staining of tumor sections was performed using the TACSXL DAB In Situ Apoptosis Detection kit (Trevigen) according to the manufacturer's instructions (19). […] Xenograft Studies-Xenografts of LN229 cells were performed in female C.B.-17-scid (Taconic) mice as previously described (14). Tumors were harvested at autopsy for Western blot analysis. Sections of paraffin-embedded tumors on slides were processed for immunohistochemistry as previously described (14,19). Statistical analysis was done with Student's t test and ANOVA models using Systat 13 (Systat Software, Chicago, Ill.). P values of less the 0.05 were considered significant.
Left panel, apoptotic cells were identified by TUNEL assays of sections prepared from harvested tumors at day 12 following initiation of treatment regimens. Data are expressed as the number of positive apoptotic bodies divided by high power field (hpf; 10-12 hpf/tumor). Values are means+S.D., *, P<0.05.

c-MYC mRNA = assay: Polysome analysis of xenografted LN229 tumors, c-MYC mRNA
Experimental: Cells were lysed in buffer containing 100 μg/ml cycloheximide at 4° C. Following removal of mitochondria and nuclei, supernatants were layered onto 15-50% sucrose gradients and centrifuged at 38,000 rpm for 2 h at 4° C. in an SW40 rotor (Beckman Instruments). Gradients were fractionated into 11 1-ml fractions using a density gradient fractionator (Brandel Instruments). The profiles of the gradients were monitored at 260 nm, and RNAs from individual fractions were pooled into a nonribosomal/monosomal pool and a polysomal pool. These RNAs (100 ng) were used in real time quantitative RT-PCR analysis for the indicated transcripts.
Tumor extracts were subjected to sucrose density gradient centrifugation, fractionated and pooled into nonribosomal, monosomal fraction (N, white bars) and a polysomal fraction (P, black bars). Purified RNAs were used in real-time qRT-PCR analysis to determine the distributions of cyclin D1, c-MYC and actin mRNAs across the gradients. […] Means and +S.D. values are shown for quadruplicate RT-PCR measurements. *, P<0.05.
Polysomes were separated via sucrose density gradient sedimentation and fractionated into heavy polysomal and nonribosomal/monosomal fractions.

[3] = tested on: cyclin D1, c-MYC and actin mRNAs; assay: Polysome analysis in LN229 cells; type: cell-based
Delta Max splicing = assay: Max exon 5 alternative splicing analysis (RT-PCR); type: cell-based; settings: U87 cells stably expressing EGFRvIII
Experimental: Max exon 5 alternative splicing analysis was performed as described (22). Alternative splicing was assayed using quantitative RT-PCR using primers designed to constitutive exons flanking alternative exons. Primers were: Max (85F) 5′-[…]-3′; MAX(85R) 5′-[…]-3′. Reverse primers were 32P end-labeled and PCR reactions were amplified for 22 cycles and subsequently resolved by denaturing PAGE and imaged.
(B) Schematic diagrams of the dicistronic constructs used in this study. Constructs used are pRF, pRCD1F, which contains the human cyclin D1 IRES, pRmycF, containing the human c-myc IRES, pRp27F, containing the human p27Kip1 IRES and pRECMVF, containing the IRES from encephalomyocarditis virus. (C) Relative Renilla and firefly luciferase activities obtained from LN229 GBM cells transfected with the indicated constructs in the absence or presence of the inhibitor C11. The mean and +SD are shown for three independent experiments. […] (D) RNA-pull down assays utilizing biotinylated cyclin D1 or c-MYC IRES RNAs. Cytoplasmic extracts of LN229 cells treated with C11 (50 nM) as indicated were incubated with biotinylated cyclin D1 or c-MYC IRES RNAs and precipitated with streptavidin-Sepharose beads. Input and bound fractions were analyzed by immunoblotting using hnRNP A1 antibodies. […] Bound CCND1 or c-MYC RNAs were detected via RT-PCR. […]

[4] = combination PP242 50 mg/kg/d + IRES-J007 20 mg/kg/d

COc1ccc(CN2C(=O)c3ccccc3C2=O)c(OC)c1 [IRES-J007, 2-((2,4-Dimethoxyphenyl)methyl)isoindoline-1,3-dione]
cytotoxic effects on normal neurons [1]: no significant cytotoxic effects
overall survival compared to either monotherapy [2, 4]: significantly extended
tumor growth delay [2, 4]: 20.5 days
inhibition of tumor growth at end of dosing period ([2]; combination PP242 50 mg/kg/d + IRES-J007 20 mg/kg/d, ten consecutive days): 93%
cyclin D1 and c-MYC protein levels in tumors ([2]; combination therapy): Marked reductions
TUNEL staining of tumor sections (apoptosis) ([2]; combination therapy, tumors harvested at day 12): significant staining
tumor growth vs double vehicle controls ([2]; monotherapy IRES-J007 20 mg/kg/d, ten consecutive days): did not differ significantly
c-MYC mRNA translational efficiency (c-MYC mRNA; IRES-J007 monotherapy): significant reduction
c-MYC mRNA polysomal (c-MYC mRNA; PP242 and IRES-J007 cotherapy): 3%

COc1ccc(CN2C(=O)C(Cl)=C(Cl)C2=O)c(OC)c1 [Compound C11, reference compound]
actin mRNA distribution ([3]; 50 nM): unaffected
polysome distribution of cyclin D1 and c-MYC mRNA ([3]; 50 nM): significant shift in both cyclin D1 and c-MYC mRNA to monosomal/nonribosomal fractions
cyclin D1 or c-MYC steady-state mRNA levels ([3]; total monosomal/nonribosomal plus polysomal mRNA): did not appear to alter
Delta Max splicing (Delta Max splicing): did not alter
